Reference: ChEMBL document CHEMBL5625228, “Design, synthesis, and bioactivity evaluation of novel amide/sulfonamide derivatives as potential anti-inflammatory agents against acute lung injury and ulcerative colitis” (Eur J Med Chem, 2023)
Activity calls are given as the source filed them. The calls are words filed in the database; no cut-off is given here.

Tests used:
J774.A1 [1] = test: Antiinflammatory activity against mouse J774.A1 cells assessed as inhibition of LPS-induced TNF-alpha production pretreated with compound for 30 mins followed by LPS induction and measured after 24 hrs by ELISA analysis; type: functional; details: for inhibition (INH): time 1470 min, 24.5 h; for inhibition: time 1470.0 min; on INH: test concentration or dose not given here
J774.A1 [2] = test: Antiinflammatory activity against mouse J774.A1 cells assessed as inhibition of LPS-induced IL-6 production pretreated with compound for 30 mins followed by LPS induction and measured after 24 hrs by ELISA analysis; type: functional; details: for inhibition (INH): time 1470 min, 24.5 h; for inhibition: time 1470.0 min; on INH: test concentration or dose not given here
J774.A1 [3] = test: Antiinflammatory activity against mouse J774.A1 cells assessed as inhibition of LPS-induced IL-6 release preincubated with compound for 30 mins followed by LPS-induction and measured after 24 hrs by ELISA analysis; type: functional, cell-based
J774.A1 [4] = test: Antiinflammatory activity against mouse J774.A1 cells assessed as inhibition of LPS-induced TNF-alpha release preincubated with compound for 30 mins followed by LPS-induction and measured after 24 hrs by ELISA analysis; type: functional, cell-based
J774.A1 [5] = test: Antiinflammatory activity against LPS-induced mouse J774.A1 cells assessed as effect on IL-6 mRNA level preincubated with compound for 30 mins followed by LPS-induction and measured after 6 hrs by qPCR analysis; type: functional, cell-based; details: time 390.0 min

## COc1ccc(NC(=O)CN2CCN(Cc3ccccc3)CC2)cn1
J774.A1 [1]
  inhibition (INH): 34.1%
J774.A1 [2]
  inhibition (INH): 9.69%

## COc1ccc(NS(=O)(=O)CCN2CCN(Cc3ccccc3)CC2)cn1
J774.A1 [1]
  inhibition (INH): 16.24%
J774.A1 [2]
  inhibition (INH): 13.57%

## O=C(CN1CCN(Cc2ccc([N+](=O)[O-])cc2)CC1)NCc1ccccn1
J774.A1 [1]
  inhibition (INH): 42.8%
J774.A1 [2]
  inhibition (INH): 36.43%

## COc1cc(-c2csc(NC(=O)CCN3CCN(Cc4cccc([N+](=O)[O-])c4)CC3)n2)ccc1O
J774.A1 [1]
  inhibition (INH): 41.39%
J774.A1 [2]
  inhibition (INH): 78.47%

## O=C(CN1CCN(c2ccc([N+](=O)[O-])cc2)CC1)Nc1ccccn1
J774.A1 [1]
  inhibition (INH): 41.4%
J774.A1 [2]
  inhibition (INH): 54.4%

## O=[N+]([O-])c1cccc(CN2CCN(c3ccc(S(=O)(=O)NCc4ccccn4)cc3[N+](=O)[O-])CC2)c1
J774.A1 [3]
  IC50: 1.38 µM
J774.A1 [1]
  inhibition (INH): 43.51%
J774.A1 [4]
  IC50: 3.99 µM
J774.A1 [2]
  inhibition (INH): 71.33%
J774.A1 [5]
  Activity: inactive

## COc1ccc(NC(=O)CN2CCN(Cc3ccc([N+](=O)[O-])cc3)CC2)cn1
J774.A1 [1]
  inhibition (INH): 37.85%
J774.A1 [2]
  inhibition (INH): 35.43%

## COc1ccc(CN2CCN(CC(=O)Nc3ccc(OC)nc3)CC2)cc1
J774.A1 [1]
  inhibition (INH): 38.65%
J774.A1 [2]
  inhibition (INH): 19.35%

## O=S(=O)(CCN1CCN(Cc2ccccc2)CC1)NCc1ccccn1
J774.A1 [1]
  inhibition (INH): 43.92%
J774.A1 [2]
  inhibition (INH): 54.87%

## O=C(CN1CCN(Cc2ccccc2)CC1)Nc1cccc2ccccc12
J774.A1 [1]
  inhibition (INH): 40.65%
J774.A1 [2]
  inhibition (INH): 37.08%

## O=S(=O)(CCN1CCN(c2ncccn2)CC1)NCc1ccccn1
J774.A1 [1]
  inhibition (INH): 40.39%
J774.A1 [2]
  inhibition (INH): 50.45%

## COc1ccc(NC(=O)CN2CCN(c3ncccn3)CC2)cn1
J774.A1 [1]
  inhibition (INH): 47.96%
J774.A1 [2]
  inhibition (INH): 33.21%

## COc1ccc(CN2CCN(CC(=O)NCc3ccccn3)CC2)cc1
J774.A1 [1]
  inhibition (INH): 38.64%
J774.A1 [2]
  inhibition (INH): 3.21%

## CC(=O)Nc1ncc(CN2CCN(c3ccc(S(=O)(=O)NCc4ccccn4)cc3[N+](=O)[O-])CC2)s1
J774.A1 [1]
  inhibition (INH): 31.13%
J774.A1 [2]
  inhibition (INH): 40.3%

## O=C(CN1CCN(c2ccc([N+](=O)[O-])cc2)CC1)Nc1cccc2ccccc12
J774.A1 [1]
  inhibition (INH): 17.43%
J774.A1 [2]
  inhibition (INH): 17.67%

## O=[N+]([O-])c1ccc(N2CCN(CCS(=O)(=O)NCc3ccccn3)CC2)cc1
J774.A1 [1]
  inhibition (INH): 51.16%
J774.A1 [2]
  inhibition (INH): 60.1%

## COc1ccc(NC(=O)CN2CCN(c3ccc([N+](=O)[O-])cc3)CC2)cn1
J774.A1 [1]
  inhibition (INH): 35.31%
J774.A1 [2]
  inhibition (INH): 26.57%

## COc1ccc(NS(=O)(=O)CCN2CCN(Cc3ccc([N+](=O)[O-])cc3)CC2)cn1
J774.A1 [1]
  inhibition (INH): 38.83%
J774.A1 [2]
  inhibition (INH): 42.48%

## O=C(CN1CCN(Cc2cccc([N+](=O)[O-])c2)CC1)NCc1ccccn1
J774.A1 [1]
  inhibition (INH): 39.82%
J774.A1 [2]
  inhibition (INH): 21.88%

## COc1ccc(CN2CCN(c3ccc(S(=O)(=O)NCc4ccccn4)cc3[N+](=O)[O-])CC2)cc1
J774.A1 [1]
  inhibition (INH): 18.06%
J774.A1 [2]
  inhibition (INH): 53.8%

## O=[N+]([O-])c1ccc(N2CCN(CCS(=O)(=O)Nc3cccc4ccccc34)CC2)cc1
J774.A1 [1]
  inhibition (INH): 48.59%
J774.A1 [2]
  inhibition (INH): 54.08%

## COc1ccc(CN2CCN(CCS(=O)(=O)Nc3cccc4ccccc34)CC2)cc1
J774.A1 [1]
  inhibition (INH): 38.07%
J774.A1 [2]
  inhibition (INH): 46.54%

## O=C(CN1CCN(Cc2ccccc2)CC1)NCc1ccccn1
J774.A1 [1]
  inhibition (INH): 40.91%
J774.A1 [2]
  inhibition (INH): 23.3%

## CC(=O)Nc1ncc(CN2CCN(CCS(=O)(=O)Nc3cccc4ccccc34)CC2)s1
J774.A1 [1]
  inhibition (INH): 25.56%
J774.A1 [2]
  inhibition (INH): 43.92%

## O=C(CN1CCN(c2ncccn2)CC1)Nc1cccc2ccccc12
J774.A1 [1]
  inhibition (INH): 18.5%
J774.A1 [2]
  inhibition (INH): 9.078%

## O=[N+]([O-])c1cc(S(=O)(=O)NCc2ccccn2)ccc1N1CCN(c2ncccn2)CC1
J774.A1 [1]
  inhibition (INH): 18.24%
J774.A1 [2]
  inhibition (INH): 20.86%

## O=[N+]([O-])c1ccc(CN2CCN(CCS(=O)(=O)Nc3cccc4ccccc34)CC2)cc1
J774.A1 [1]
  inhibition (INH): 52.22%
J774.A1 [2]
  inhibition (INH): 51.66%

## O=C(CN1CCN(Cc2cccc([N+](=O)[O-])c2)CC1)Nc1cccc2ccccc12
J774.A1 [1]
  inhibition (INH): 49.62%
J774.A1 [2]
  inhibition (INH): 36.57%

## O=[N+]([O-])c1ccc(N2CCN(CCS(=O)(=O)Nc3ccc4ncccc4c3)CC2)cc1
J774.A1 [1]
  inhibition (INH): 41.31%
J774.A1 [2]
  inhibition (INH): 63.27%

## COc1ccc(NS(=O)(=O)CCN2CCN(c3ncccn3)CC2)cn1
J774.A1 [1]
  inhibition (INH): 37.77%
J774.A1 [2]
  inhibition (INH): 42%

## O=[N+]([O-])c1ccc(CN2CCN(CCS(=O)(=O)NCc3ccccn3)CC2)cc1
J774.A1 [1]
  inhibition (INH): 41.37%
J774.A1 [2]
  inhibition (INH): 49.16%

## COc1ccc(NC(=O)CN2CCN(Cc3cnc(NC(C)=O)s3)CC2)cn1
J774.A1 [1]
  inhibition (INH): 53.08%
J774.A1 [2]
  inhibition (INH): 47.13%

## O=[N+]([O-])c1cccc(CN2CCN(CCS(=O)(=O)Nc3cccc4ccccc34)CC2)c1
J774.A1 [1]
  inhibition (INH): 48.04%
J774.A1 [2]
  inhibition (INH): 39.74%

## O=S(=O)(CCN1CCN(Cc2ccccc2)CC1)Nc1ccc2ncccc2c1
J774.A1 [1]
  inhibition (INH): 9.54%
J774.A1 [2]
  inhibition (INH): 43.09%

## COc1ccc(NC(=O)CN2CCN(Cc3cccc([N+](=O)[O-])c3)CC2)cn1
J774.A1 [1]
  inhibition (INH): 41.2%
J774.A1 [2]
  inhibition (INH): 20.88%

## O=C(CN1CCN(Cc2ccc([N+](=O)[O-])cc2)CC1)Nc1cccc2ccccc12
J774.A1 [1]
  inhibition (INH): 44.12%
J774.A1 [2]
  inhibition (INH): 51.42%

## O=[N+]([O-])c1cccc(CN2CCN(CCS(=O)(=O)NCc3ccccn3)CC2)c1
J774.A1 [1]
  inhibition (INH): 38.96%
J774.A1 [2]
  inhibition (INH): 41.05%

## COc1ccc(NS(=O)(=O)CCN2CCN(Cc3cccc([N+](=O)[O-])c3)CC2)cn1
J774.A1 [1]
  inhibition (INH): 34.88%
J774.A1 [2]
  inhibition (INH): 30.6%

## O=C(CCN1CCN(c2ccc([N+](=O)[O-])cc2)CC1)Nc1cccc2ccccc12
J774.A1 [1]
  inhibition: inactive
J774.A1 [2]
  inhibition: inactive

## COc1ccc(CN2CCN(CC(=O)Nc3cccc4ccccc34)CC2)cc1
J774.A1 [1]
  inhibition: inactive
J774.A1 [2]
  inhibition: inactive

## COc1ccc(CN2CCN(CCS(=O)(=O)Nc3ccc4ncccc4c3)CC2)cc1
J774.A1 [1]
  inhibition (INH): 31.97%
J774.A1 [2]
  inhibition (INH): 50.52%

## O=C(CCN1CCN(Cc2ccccc2)CC1)Nc1cccc2ccccc12
J774.A1 [1]
  inhibition (INH): 55.28%
J774.A1 [2]
  inhibition (INH): 50.93%

## O=S(=O)(CCN1CCN(c2ncccn2)CC1)Nc1ccc2ncccc2c1
J774.A1 [1]
  inhibition (INH): 5.34%
J774.A1 [2]
  inhibition (INH): 23.7%

## O=C(CCN1CCN(Cc2ccccc2)CC1)NCc1ccccn1
J774.A1 [1]
  inhibition (INH): 40.52%
J774.A1 [2]
  inhibition (INH): 31%

## COc1ccc(CN2CCN(CCS(=O)(=O)Nc3ccc(OC)nc3)CC2)cc1
J774.A1 [1]
  inhibition (INH): 39.86%
J774.A1 [2]
  inhibition (INH): 55.78%

## O=S(=O)(CCN1CCN(Cc2ccccc2)CC1)Nc1cccc2ccccc12
J774.A1 [1]
  inhibition (INH): 38.58%
J774.A1 [2]
  inhibition (INH): 36.45%

## O=C(CN1CCN(c2ncccn2)CC1)NCc1ccccn1
J774.A1 [1]
  inhibition (INH): 38.32%
J774.A1 [2]
  inhibition (INH): 40.7%

## COc1ccc(NS(=O)(=O)CCN2CCN(c3ccc([N+](=O)[O-])cc3)CC2)cn1
J774.A1 [1]
  inhibition (INH): 47.01%
J774.A1 [2]
  inhibition (INH): 54.03%

## O=[N+]([O-])c1ccc(CN2CCN(CCS(=O)(=O)Nc3ccc4ncccc4c3)CC2)cc1
J774.A1 [1]
  inhibition (INH): 24.49%
J774.A1 [2]
  inhibition (INH): 58.07%

## O=C(CCN1CCN(Cc2ccc([N+](=O)[O-])cc2)CC1)NCc1ccccn1
J774.A1 [1]
  inhibition (INH): 25.79%
J774.A1 [2]
  inhibition (INH): 36.81%

## O=S(=O)(CCN1CCN(c2ncccn2)CC1)Nc1cccc2ccccc12
J774.A1 [1]
  inhibition (INH): 12.33%
J774.A1 [2]
  inhibition (INH): 10.6%

## O=[N+]([O-])c1cccc(CN2CCN(CCS(=O)(=O)Nc3ccc4ncccc4c3)CC2)c1
J774.A1 [1]
  inhibition (INH): 23.97%
J774.A1 [2]
  inhibition (INH): 54.36%

## CC(=O)Nc1ncc(CN2CCN(CC(=O)NCc3ccccn3)CC2)s1
J774.A1 [1]
  inhibition (INH): 36.32%
J774.A1 [2]
  inhibition (INH): 19.68%

## O=C(CN1CCN(c2ccc([N+](=O)[O-])cc2)CC1)NCc1ccccn1
J774.A1 [1]
  inhibition (INH): 57.51%
J774.A1 [2]
  inhibition (INH): 49.31%

## O=C(CCN1CCN(c2ccc([N+](=O)[O-])cc2)CC1)NCc1ccccn1
J774.A1 [1]
  inhibition (INH): 20.88%
J774.A1 [2]
  inhibition (INH): 19.64%

## COc1ccc(CN2CCN(CCS(=O)(=O)NCc3ccccn3)CC2)cc1
J774.A1 [1]
  inhibition (INH): 35.94%
J774.A1 [2]
  inhibition (INH): 44.03%
